Test results from ChEMBL document CHEMBL1201862, “PubChem BioAssay data set” (2004).
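Briefly, cells in 96-well plates were exposed to five compound concentrations for 48 h, and endpoints were estimated by linear interpolation. Abbreviation: GI50, concentration required for 50% inhibition of growth.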 Calls of active or inactive are those of the source. Rule as the data show it: active = GI50 up to about 1.1 µM and inactive = higher.

How the values were obtained:
Assay in all cases: NCI-60 cell line screen, 48 h
786-0 = test system: 786-0
TK-10 = test system: TK-10
ACHN = test system: ACHN
BT-549 = test system: BT-549
UO-31 = test system: UO-31
CCRF-CEM = test system: CCRF-CEM
IGROV-1 = test system: IGROV-1
HCT-15 = test system: HCT-15
COLO 205 = test system: COLO 205
OVCAR-4 = test system: OVCAR-4
HL-60 = test system: HL-60
SF-539 = test system: SF-539
M14 = test system: M14
HCC 2998 = test system: HCC 2998
OVCAR-3 = test system: OVCAR-3
Malme-3M = test system: Malme-3M
SR = test system: SR
MOLT-4 = test system: MOLT-4
SK-OV-3 = test system: SK-OV-3
SK-MEL-2 = test system: SK-MEL-2
K562 = test system: K562
U-251 = test system: U-251
KM12 = test system: KM12
DU-145 = test system: DU-145
CAKI-1 = test system: CAKI-1
OVCAR-8 = test system: OVCAR-8
PC-3 = test system: PC-3
NCI-H23 = test system: NCI-H23
HOP-92 = test system: HOP-92
A498 = test system: A498
HT-29 = test system: HT-29
LOX IMVI = test system: LOX IMVI
Hs-578T = test system: Hs-578T
SN12C = test system: SN12C
SW-620 = test system: SW-620
RPMI-8226 = test system: RPMI-8226
HCT-116 = test system: HCT-116
NCI/ADR-RES = test system: NCI/ADR-RES
A549 = test system: A549
UACC-257 = test system: UACC-257
SF-268 = test system: SF-268
MCF7 = test system: MCF7
SF-295 = test system: SF-295
MDA-N = test system: MDA-N
HOP-62 = test system: HOP-62
SK-MEL-5 = test system: SK-MEL-5
UACC-62 = test system: UACC-62
NCI-H460 = test system: NCI-H460
OVCAR-5 = test system: OVCAR-5
RXF 393 = test system: RXF 393
T47D = test system: T47D
SNB-19 = test system: SNB-19
EKVX = test system: EKVX
SNB-75 = test system: SNB-75
NCI-H522 = test system: NCI-H522
NCI-H226 = test system: NCI-H226
MDA-MB-435 = test system: MDA-MB-435
SK-MEL-28 = test system: SK-MEL-28
MDA-MB-231 = test system: MDA-MB-231

Compound: O=C1c2c(Br)sc(Br)c2C(=O)C1(O)O
- GI50 (786-0): 34 µM (inactive)
- GI50 (TK-10): 72.3 µM (inactive)
- GI50 (ACHN): 31.8 µM (inactive)
- GI50 (BT-549): 19.3 µM (inactive)
- GI50 (UO-31): 34.2 µM (inactive)
- GI50 (CCRF-CEM): 27.7 µM (inactive)
- GI50 (IGROV-1): > 100 µM (inactive)
- GI50 (HCT-15): 27.1 µM
- GI50 (COLO 205): 23.4 µM (inactive)
- GI50 (OVCAR-4): 18.3 µM (inactive)
- GI50 (HL-60): 41 µM (inactive)
- GI50 (SF-539): 20.8 µM (inactive)
- GI50 (M14): 19.2 µM (inactive)
- GI50 (HCC 2998): > 100 µM (inactive)
- GI50 (OVCAR-3): 19.4 µM (inactive)
- GI50 (Malme-3M): 19.3 µM (inactive)
- GI50 (SR): 24.1 µM (inactive)
- GI50 (MOLT-4): 33.6 µM (inactive)
- GI50 (SK-OV-3): > 100 µM (inactive)
- GI50 (SK-MEL-2): 29.8 µM (inactive)
- GI50 (K562): 27.7 µM (inactive)
- GI50 (U-251): 39.7 µM (inactive)
- GI50 (KM12): > 100 µM (inactive)
- GI50 (DU-145): > 100 µM (inactive)
- GI50 (CAKI-1): 18.6 µM (inactive)
- GI50 (OVCAR-8): 35.7 µM (inactive)
- GI50 (PC-3): 22.8 µM (inactive)
- GI50 (NCI-H23): 33.4 µM (inactive)
- GI50 (HOP-92): 17.9 µM (inactive)
- GI50 (A498): > 100 µM (inactive)
- GI50 (HT-29): 39.3 µM (inactive)
- GI50 (LOX IMVI): > 100 µM (inactive)
- GI50 (Hs-578T): > 100 µM (inactive)
- GI50 (SN12C): 98.9 µM (inactive)
- GI50 (SW-620): 35.6 µM (inactive)
- GI50 (RPMI-8226): 46.6 µM (inactive)
- GI50 (HCT-116): 19.7 µM (inactive)
- GI50 (NCI/ADR-RES): > 100 µM (inactive)
- GI50 (A549): > 100 µM (inactive)
- GI50 (UACC-257): 19.8 µM (inactive)
- GI50 (SF-268): > 100 µM (inactive)
- GI50 (MCF7): 44.5 µM (inactive)
- GI50 (SF-295): > 100 µM (inactive)
- GI50 (MDA-N): 36.8 µM (inactive)
- GI50 (HOP-62): > 100 µM (inactive)
- GI50 (SK-MEL-5): 19.9 µM (inactive)
- GI50 (UACC-62): 76.2 µM (inactive)
- GI50 (NCI-H460): > 100 µM (inactive)
- GI50 (OVCAR-5): 23.7 µM (inactive)
- GI50 (RXF 393): 19.1 µM (inactive)
- GI50 (T47D): 21.8 µM (inactive)
- GI50 (SNB-19): > 100 µM (inactive)
- GI50 (EKVX): 53.6 µM (inactive)
- GI50 (SNB-75): 36.4 µM (inactive)
- GI50 (NCI-H522): 18.8 µM (inactive)
- GI50 (NCI-H226): > 100 µM (inactive)
- GI50 (MDA-MB-435): 19.4 µM (inactive)
- GI50 (SK-MEL-28): > 100 µM (inactive)

Compound: CN1B(c2ccccc2)N(C)C(=O)N(C)C1=O
- GI50 (786-0): > 100 µM (inactive)
- GI50 (TK-10): > 100 µM (inactive)
- GI50 (ACHN): > 100 µM (inactive)
- GI50 (BT-549): > 100 µM (inactive)
- GI50 (UO-31): 20.5 µM (inactive)
- GI50 (CCRF-CEM): > 100 µM (inactive)
- GI50 (IGROV-1): > 100 µM (inactive)
- GI50 (HCT-15): > 100 µM
- GI50 (COLO 205): > 100 µM (inactive)
- GI50 (HL-60): > 100 µM (inactive)
- GI50 (SF-539): > 100 µM (inactive)
- GI50 (M14): > 100 µM (inactive)
- GI50 (Malme-3M): > 100 µM (inactive)
- GI50 (SK-OV-3): > 100 µM (inactive)
- GI50 (SK-MEL-2): > 100 µM (inactive)
- GI50 (K562): > 100 µM (inactive)
- GI50 (U-251): > 100 µM (inactive)
- GI50 (KM12): > 100 µM (inactive)
- GI50 (DU-145): > 100 µM (inactive)
- GI50 (CAKI-1): 52.2 µM (inactive)
- GI50 (OVCAR-8): > 100 µM (inactive)
- GI50 (PC-3): > 100 µM (inactive)
- GI50 (NCI-H23): > 100 µM (inactive)
- GI50 (HOP-92): > 100 µM (inactive)
- GI50 (HT-29): > 100 µM (inactive)
- GI50 (Hs-578T): 81.3 µM (inactive)
- GI50 (SN12C): > 100 µM (inactive)
- GI50 (SW-620): > 100 µM (inactive)
- GI50 (RPMI-8226): > 100 µM (inactive)
- GI50 (HCT-116): > 100 µM (inactive)
- GI50 (NCI/ADR-RES): > 100 µM (inactive)
- GI50 (A549): > 100 µM (inactive)
- GI50 (UACC-257): > 100 µM (inactive)
- GI50 (SF-268): > 100 µM (inactive)
- GI50 (MCF7): > 100 µM (inactive)
- GI50 (SF-295): > 100 µM (inactive)
- GI50 (MDA-N): > 100 µM (inactive)
- GI50 (SK-MEL-5): > 100 µM (inactive)
- GI50 (UACC-62): > 100 µM (inactive)
- GI50 (NCI-H460): > 100 µM (inactive)
- GI50 (OVCAR-5): > 100 µM (inactive)
- GI50 (RXF 393): > 100 µM (inactive)
- GI50 (T47D): > 100 µM (inactive)
- GI50 (SNB-19): > 100 µM (inactive)
- GI50 (EKVX): > 100 µM (inactive)
- GI50 (SNB-75): 18.4 µM (inactive)
- GI50 (NCI-H226): > 100 µM (inactive)
- GI50 (MDA-MB-435): > 100 µM (inactive)

Compound: CC1OC(OC2C(OC(=O)[C@]34CCC(C)(C)C[C@H]3C3=CC[C@@H]5[C@@]6(C)CC[C@H](OC7OC(CO)C(O)C(O)C7OC7OC(CO)C(O)C(O)C7O)C(C)(C)[C@@H]6CC[C@@]5(C)[C@]3(C)CC4)OCC(O)C2O)C(O)C(O)C1OC1OCC(O)C(O)C1O (some centres undefined)
- GI50 (786-0): 8.3 µM (inactive)
- GI50 (TK-10): 8.51 µM (inactive)
- GI50 (ACHN): 11.9 µM (inactive)
- GI50 (BT-549): 9.12 µM (inactive)
- GI50 (UO-31): 2.3 µM (inactive)
- GI50 (CCRF-CEM): 18.5 µM (inactive)
- GI50 (IGROV-1): 16 µM (inactive)
- GI50 (HCT-15): 15.7 µM
- GI50 (COLO 205): 1.71 µM (inactive)
- GI50 (MDA-MB-231): 7.83 µM (inactive)
- GI50 (OVCAR-4): 9.59 µM (inactive)
- GI50 (HL-60): 6.11 µM (inactive)
- GI50 (SF-539): 45.8 µM (inactive)
- GI50 (M14): 4.67 µM (inactive)
- GI50 (HCC 2998): 1.98 µM (inactive)
- GI50 (OVCAR-3): 23.9 µM (inactive)
- GI50 (Malme-3M): 3.82 µM (inactive)
- GI50 (SR): 7.93 µM (inactive)
- GI50 (MOLT-4): 16.4 µM (inactive)
- GI50 (SK-OV-3): 16.3 µM (inactive)
- GI50 (SK-MEL-2): 6.32 µM (inactive)
- GI50 (K562): 10.8 µM (inactive)
- GI50 (U-251): 15.1 µM (inactive)
- GI50 (KM12): 7.73 µM (inactive)
- GI50 (DU-145): 11.9 µM (inactive)
- GI50 (CAKI-1): 5.01 µM (inactive)
- GI50 (OVCAR-8): 16.5 µM (inactive)
- GI50 (PC-3): 12.4 µM (inactive)
- GI50 (NCI-H23): 9.35 µM (inactive)
- GI50 (HOP-92): 6.85 µM (inactive)
- GI50 (A498): 2.25 µM (inactive)
- GI50 (HT-29): 7.03 µM (inactive)
- GI50 (LOX IMVI): 18.2 µM (inactive)
- GI50 (Hs-578T): 20.7 µM (inactive)
- GI50 (SN12C): 3.13 µM (inactive)
- GI50 (SW-620): 16.1 µM (inactive)
- GI50 (RPMI-8226): 12.9 µM (inactive)
- GI50 (HCT-116): 11 µM (inactive)
- GI50 (NCI/ADR-RES): 8.97 µM (inactive)
- GI50 (A549): 6.37 µM (inactive)
- GI50 (UACC-257): 2.51 µM (inactive)
- GI50 (SF-268): 6.85 µM (inactive)
- GI50 (MCF7): 12.6 µM (inactive)
- GI50 (SF-295): 11.2 µM (inactive)
- GI50 (HOP-62): 15.3 µM (inactive)
- GI50 (SK-MEL-5): 14.3 µM (inactive)
- GI50 (UACC-62): 16.9 µM (inactive)
- GI50 (NCI-H460): 24.4 µM (inactive)
- GI50 (OVCAR-5): 7.98 µM (inactive)
- GI50 (RXF 393): 9.48 µM (inactive)
- GI50 (T47D): 15.4 µM (inactive)
- GI50 (SNB-19): 14.5 µM (inactive)
- GI50 (EKVX): 5 µM (inactive)
- GI50 (SNB-75): 16.7 µM (inactive)
- GI50 (NCI-H522): 3.67 µM (inactive)
- GI50 (NCI-H226): 10.8 µM (inactive)
- GI50 (MDA-MB-435): 2.79 µM (inactive)
- GI50 (SK-MEL-28): 2.65 µM (inactive)
